Measured values taken from ChEMBL document CHEMBL5543172, “Novel Isoalantolactone-Based Derivatives as Potent NLRP3 Inflammasome Inhibitors: Design, Synthesis, and Biological Characterization” (J Med Chem, 2024).
pIC50: −log10 of the molar value. Activity calls are given as the source filed them. The rule behind the calls is not given here.

Tests used:
[1] = Metabolic stability in human liver microsomes assessed as half life preincubated for 5 mins followed by NADPH addition and measured upto 60 mins by LC-MS/MS analysis; format: ADME, Microsome; details: time < 65 min
Cytochrome P450 2E1 = Cytochrome P450 2E1 (Homo sapiens, UniProt P05181); assay: Inhibition of CYP2E1 in human liver microsomes using chlorzoxazone as substrate preincubated for 5 mins followed by NADPH addition and measured after 30 to 60 mins by LC-MS/MS analysis; format: ADME, Microsome
[2] = molecular target: Muscarinic acetylcholine receptor M3 (Homo sapiens) (UniProt P20309); assay: Inhibition of muscarinic M3 receptor (unknown origin) at 1 uM relative to control
[3] = molecular target: 3',5'-cyclic-AMP phosphodiesterase 4D (Homo sapiens) (UniProt Q08499); assay: Inhibition of PDE4D2 (unknown origin) at 1 uM relative to control
[4] = molecular target: 5-hydroxytryptamine receptor 7 (Homo sapiens) (UniProt P34969); assay: Inhibition of 5-HT7 receptor (unknown origin) at 1 uM relative to control
[5] = molecular target: Androgen receptor (Homo sapiens) (UniProt P10275); assay: Inhibition of Androgen receptor (unknown origin) at 1 uM relative to control
Homo sapiens = species on record: Homo sapiens; assay: Inhibition of GlyRalpha1beta (unknown origin) at 1 uM relative to control
[6] = molecular target: Voltage-dependent N-type calcium channel subunit alpha-1B (Homo sapiens) (UniProt Q00975); assay: Inhibition of Cav2.2 (unknown origin) at 1 uM relative to control
[7] = molecular target: Prostaglandin G/H synthase 2 (Homo sapiens) (UniProt P35354); assay: Inhibition of COX2 (unknown origin) at 1 uM relative to control
[8] = molecular target: Muscarinic acetylcholine receptor M3 (Homo sapiens) (UniProt P20309); assay: Activation of muscarinic M3 receptor (unknown origin) at 1 uM relative to control
[9] = molecular target: Histamine H1 receptor (Homo sapiens) (UniProt P35367); assay: Activation of Histamine H1 receptor (unknown origin) at 1 uM relative to control
[10] = molecular target: Substance-P receptor (Homo sapiens) (UniProt P25103); assay: Activation of NK1 receptor (unknown origin) at 1 uM relative to control
[11] = molecular target: Substance-K receptor (Homo sapiens) (UniProt P21452); assay: Activation of NK2 receptor (unknown origin) at 1 uM relative to control
[12] = molecular target: Adenosine receptor A2a (Homo sapiens) (UniProt P29274); assay: Activation of adenosine A2A receptor (unknown origin) at 1 uM relative to control
[13] = molecular target: Glucocorticoid receptor (Homo sapiens) (UniProt P04150); assay: Activation of GR receptor (unknown origin) at 1 uM relative to control
[14] = molecular target: Androgen receptor (Homo sapiens) (UniProt P10275); assay: Activation of Androgen receptor (unknown origin) at 1 uM relative to control
[15] = molecular target: Transient receptor potential cation channel subfamily V member 1 (Homo sapiens) (UniProt Q8NER1); assay: Activation of TRPV1 (unknown origin) at 1 uM relative to control
[16] = molecular target: P2X purinoceptor 3 (Homo sapiens) (UniProt P56373); assay: Activation of P2X3 (unknown origin) at 1 uM relative to control
[17] = molecular target: Sodium-dependent serotonin transporter (Homo sapiens) (UniProt P31645); assay: Activation of 5-HTT (unknown origin) at 1 uM relative to control
BMDM [18] = assay: Cytotoxicity against mouse BMDM cells at 0.25 to 2 uM measured after 24 hrs by CCK-8 method; format: toxicity, cell-based; details: dose 0.25-2 µM
[19] = Cytotoxicity against human PBMC cells at 0.08 to 0.63 uM measured after 24 hrs by CCK-8 method; format: toxicity, cell-based; details: dose 0.08-0.63 µM
BMDM [20] = assay: Cytotoxicity against mouse BMDM cells at 4 uM measured after 24 hrs by CCK-8 method; format: toxicity, cell-based
[21] = Cytotoxicity against human PBMC cells at 1.25 uM measured after 24 hrs by CCK-8 method; format: toxicity, cell-based
[22] = molecular target: NACHT, LRR and PYD domains-containing protein 3 (Mus musculus) (UniProt Q8R4B8); assay: Inhibition of NLRP3 inflammasome activation in LPS/Nigericin induced mouse BMDM cells assessed as suppression of IL-1beta secretion preincubated with LPS for 3 hrs followed by compound addition for 40 mins and further stimulated with nigericin for 40 mins by Western blot analysis; format: cell-based; details: dose 0.25-1 µM, time 80.0 min
[23] = molecular target: NACHT, LRR and PYD domains-containing protein 3 (Mus musculus) (UniProt Q8R4B8); assay: Inhibition of NLRP3 inflammasome activation in LPS/Nigericin induced mouse BMDM cells assessed as suppression of caspase-1 secretion preincubated with LPS for 3 hrs followed by compound addition for 40 mins and further stimulated with nigericin for 40 mins by Western blot analysis; format: cell-based; details: dose 0.25-1 µM, time 80.0 min
[24] = molecular target: NACHT, LRR and PYD domains-containing protein 3 (Mus musculus) (UniProt Q8R4B8); assay: Inhibition of NLRP3 inflammasome activation in LPS/Nigericin induced mouse BMDM cells assessed as effect on ASC expression at 0.25 to 1 uM preincubated with LPS for 3 hrs followed by compound addition for 40 mins and further stimulated with nigericin for 40 mins by Western blot analysis; format: cell-based; details: dose 0.25-1 µM, time 80.0 min
[25] = Cmax in male C57BL/6 mouse at 30 mg/kg, ip measured upto 1440 mins by LC-MS/MS analysis; format: ADME, organism-based; details: in vivo
[26] = Drug distribution in C57BL/6 mouse colon at 30 mg/kg, ip measured after 2 hrs by LC-MS/MS analysis; format: ADME, organism-based; details: read-out: Drug uptake
[27] = Drug distribution in C57BL/6 mouse colon at 30 mg/kg, ip measured after 24 hrs by LC-MS/MS analysis; format: ADME, organism-based; details: read-out: Drug uptake
[28] = Drug distribution in C57BL/6 mouse plasma at 30 mg/kg, ip measured after 0.5 hrs by LC-MS/MS analysis; format: ADME, organism-based
[29] = Drug distribution in C57BL/6 mouse plasma at 30 mg/kg, ip measured after 2 hrs by LC-MS/MS analysis; format: ADME, organism-based
[30] = Drug distribution in C57BL/6 mouse plasma at 30 mg/kg, ip measured after 8 hrs by LC-MS/MS analysis; format: ADME, organism-based
BMDM [31] = assay: Inhibition of pyroptosis in LPS/nigericin induced […] cells assessed as reduction in red fluorescence production preincubated with LPS for 3 hrs followed by compound addition for 40 mins and further stimulated with nigericin for 40 mins by PI staining based inverted microscopy based analysis; format: functional, cell-based; details: dose 0.25-1 µM, time 80.0 min
THP-1 [32] = assay: Binding affinity to NLRP3deltaLRR mutant in PMA- differentiated human THP-1 cells assessed as protection of pronase-mediated protein degradation at 100 to 1000 uM pretreated with LPS for 3 hrs followed by incubation with compound for 50 mins followed by pronase digestion for 30 mins by DARTS analysis; format: cell-based; details: dose 100-1000 µM, time 80.0 min
THP-1 [33] = assay: Inhibition of NLRP3-ASC interaction in LPS/nigericin stimulated human THP-1 cells at 1 uM preincubated with LPS for 3 hrs followed by compound addition for 40 mins and further stimulated with nigericin for 40 mins by immunoprecipitation analysis; format: cell-based; details: time 80.0 min
THP-1 [34] = assay: Inhibition of NLRP3-NEK7 interaction in LPS/nigericin stimulated human THP-1 cells at 1 uM preincubated with LPS for 3 hrs followed by compound addition for 40 mins and further stimulated with nigericin for 40 mins by immunoprecipitation analysis; format: cell-based; details: time 80.0 min
HEK293T [35] = assay: Inhibition of HA-NLRP3/FLAG tagged NEK7 interaction (unknown origin) transfected in HEK293T cells at 1 uM incubated for 24 hrs by Western blot analysis; format: cell-based; details: Homo sapiens
HEK293T [36] = assay: Inhibition of HA-NLRP3 C279A mutant/FLAG tagged NEK7 interaction (unknown origin) transfected in HEK293T cells at 1 uM incubated for 24 hrs by Western blot analysis; format: cell-based; details: Homo sapiens

NACHT, LRR and PYD domains-containing protein 3 (Mus musculus), sequence (Q8R4B8 whole entry, the tested form may be a part): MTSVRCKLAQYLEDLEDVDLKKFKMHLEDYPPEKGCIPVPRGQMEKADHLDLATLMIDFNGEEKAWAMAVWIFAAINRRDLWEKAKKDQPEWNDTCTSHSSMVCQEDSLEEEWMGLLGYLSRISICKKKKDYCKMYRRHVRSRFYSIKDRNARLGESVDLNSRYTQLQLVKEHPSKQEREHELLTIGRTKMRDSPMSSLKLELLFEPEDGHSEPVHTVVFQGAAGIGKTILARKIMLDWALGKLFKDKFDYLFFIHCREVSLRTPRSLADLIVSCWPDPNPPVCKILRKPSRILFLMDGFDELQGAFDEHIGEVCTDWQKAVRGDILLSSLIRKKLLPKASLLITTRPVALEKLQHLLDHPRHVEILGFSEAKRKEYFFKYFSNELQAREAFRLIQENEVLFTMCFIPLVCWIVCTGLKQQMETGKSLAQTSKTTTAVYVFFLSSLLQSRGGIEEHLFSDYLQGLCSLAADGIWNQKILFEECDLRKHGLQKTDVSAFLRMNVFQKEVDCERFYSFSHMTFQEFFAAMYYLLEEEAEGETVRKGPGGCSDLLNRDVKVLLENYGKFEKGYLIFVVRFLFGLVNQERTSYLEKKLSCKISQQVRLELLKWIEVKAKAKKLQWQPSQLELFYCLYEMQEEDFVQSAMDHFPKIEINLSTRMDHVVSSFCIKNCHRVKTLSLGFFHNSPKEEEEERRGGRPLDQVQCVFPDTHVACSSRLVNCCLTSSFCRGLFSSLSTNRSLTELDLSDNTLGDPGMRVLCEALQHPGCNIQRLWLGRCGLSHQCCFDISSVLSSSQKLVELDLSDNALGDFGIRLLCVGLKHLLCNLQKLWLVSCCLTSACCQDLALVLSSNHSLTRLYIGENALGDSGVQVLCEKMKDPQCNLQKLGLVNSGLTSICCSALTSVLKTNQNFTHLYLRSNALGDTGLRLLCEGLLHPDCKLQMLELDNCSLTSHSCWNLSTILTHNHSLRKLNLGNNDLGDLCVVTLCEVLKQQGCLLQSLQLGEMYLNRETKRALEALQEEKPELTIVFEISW
Androgen receptor (Homo sapiens), sequence (P10275 whole entry): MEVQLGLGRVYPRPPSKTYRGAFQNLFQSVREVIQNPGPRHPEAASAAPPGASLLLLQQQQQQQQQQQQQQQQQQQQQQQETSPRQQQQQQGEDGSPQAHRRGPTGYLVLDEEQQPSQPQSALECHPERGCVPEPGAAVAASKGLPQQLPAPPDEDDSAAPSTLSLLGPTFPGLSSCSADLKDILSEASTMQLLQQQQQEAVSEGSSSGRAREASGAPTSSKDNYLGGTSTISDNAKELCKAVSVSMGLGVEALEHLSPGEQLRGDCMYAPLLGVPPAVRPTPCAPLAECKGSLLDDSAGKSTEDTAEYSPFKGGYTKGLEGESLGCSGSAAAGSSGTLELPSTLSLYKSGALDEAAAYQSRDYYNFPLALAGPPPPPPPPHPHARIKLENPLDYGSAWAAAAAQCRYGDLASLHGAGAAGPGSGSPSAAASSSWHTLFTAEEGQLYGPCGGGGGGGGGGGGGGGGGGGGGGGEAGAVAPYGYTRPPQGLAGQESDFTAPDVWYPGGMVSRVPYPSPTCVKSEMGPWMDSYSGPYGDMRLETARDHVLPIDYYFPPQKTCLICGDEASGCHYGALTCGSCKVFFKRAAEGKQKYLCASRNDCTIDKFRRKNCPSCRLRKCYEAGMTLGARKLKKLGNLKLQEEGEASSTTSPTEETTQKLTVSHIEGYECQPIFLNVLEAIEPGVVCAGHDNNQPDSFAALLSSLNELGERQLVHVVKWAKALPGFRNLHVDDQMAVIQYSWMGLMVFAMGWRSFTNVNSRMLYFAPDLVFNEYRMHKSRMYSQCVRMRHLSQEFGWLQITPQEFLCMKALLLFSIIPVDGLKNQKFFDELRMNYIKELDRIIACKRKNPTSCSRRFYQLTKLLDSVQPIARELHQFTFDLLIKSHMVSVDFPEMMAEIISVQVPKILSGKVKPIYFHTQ
Muscarinic acetylcholine receptor M3 (Homo sapiens), sequence (P20309 whole entry, looked up): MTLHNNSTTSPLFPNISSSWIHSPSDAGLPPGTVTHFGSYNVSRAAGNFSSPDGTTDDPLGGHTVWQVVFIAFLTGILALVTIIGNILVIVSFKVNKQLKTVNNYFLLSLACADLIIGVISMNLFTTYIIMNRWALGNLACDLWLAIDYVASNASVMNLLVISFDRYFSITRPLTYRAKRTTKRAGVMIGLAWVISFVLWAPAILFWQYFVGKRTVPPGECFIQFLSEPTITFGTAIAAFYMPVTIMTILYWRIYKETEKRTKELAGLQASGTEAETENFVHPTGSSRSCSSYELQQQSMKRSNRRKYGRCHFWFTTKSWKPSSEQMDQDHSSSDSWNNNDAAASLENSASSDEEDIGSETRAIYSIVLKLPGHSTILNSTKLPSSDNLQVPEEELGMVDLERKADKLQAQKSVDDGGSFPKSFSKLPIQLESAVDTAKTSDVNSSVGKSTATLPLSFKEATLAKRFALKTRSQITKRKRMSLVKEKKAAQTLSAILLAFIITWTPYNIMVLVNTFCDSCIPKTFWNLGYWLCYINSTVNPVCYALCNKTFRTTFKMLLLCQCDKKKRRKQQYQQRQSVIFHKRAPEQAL
Histamine H1 receptor (Homo sapiens), sequence (P35367 whole entry): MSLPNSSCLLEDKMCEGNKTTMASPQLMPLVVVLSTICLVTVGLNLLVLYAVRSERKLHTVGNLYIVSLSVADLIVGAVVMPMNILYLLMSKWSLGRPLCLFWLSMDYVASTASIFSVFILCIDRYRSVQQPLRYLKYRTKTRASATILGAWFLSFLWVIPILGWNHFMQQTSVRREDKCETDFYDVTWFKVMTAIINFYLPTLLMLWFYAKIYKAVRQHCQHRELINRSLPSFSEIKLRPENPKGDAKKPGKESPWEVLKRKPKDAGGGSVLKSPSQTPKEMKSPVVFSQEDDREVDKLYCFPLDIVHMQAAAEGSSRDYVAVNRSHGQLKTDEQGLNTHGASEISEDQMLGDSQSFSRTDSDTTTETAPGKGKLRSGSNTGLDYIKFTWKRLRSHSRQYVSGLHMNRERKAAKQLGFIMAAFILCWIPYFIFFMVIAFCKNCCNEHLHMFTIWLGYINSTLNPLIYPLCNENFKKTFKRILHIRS
Adenosine receptor A2a (Homo sapiens), sequence (P29274 whole entry): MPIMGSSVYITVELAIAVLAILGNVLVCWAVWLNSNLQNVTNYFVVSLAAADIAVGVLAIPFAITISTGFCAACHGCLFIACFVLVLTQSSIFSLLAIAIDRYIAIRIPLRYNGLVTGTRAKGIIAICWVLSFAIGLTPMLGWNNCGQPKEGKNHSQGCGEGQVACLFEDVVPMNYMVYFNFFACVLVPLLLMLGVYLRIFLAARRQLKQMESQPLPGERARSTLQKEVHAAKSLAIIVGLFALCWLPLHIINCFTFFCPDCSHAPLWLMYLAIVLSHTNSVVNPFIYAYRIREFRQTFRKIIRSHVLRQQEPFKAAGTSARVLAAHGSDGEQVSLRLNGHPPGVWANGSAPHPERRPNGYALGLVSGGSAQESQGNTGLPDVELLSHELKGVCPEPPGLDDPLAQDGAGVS
Substance-P receptor (Homo sapiens), sequence (P25103 whole entry): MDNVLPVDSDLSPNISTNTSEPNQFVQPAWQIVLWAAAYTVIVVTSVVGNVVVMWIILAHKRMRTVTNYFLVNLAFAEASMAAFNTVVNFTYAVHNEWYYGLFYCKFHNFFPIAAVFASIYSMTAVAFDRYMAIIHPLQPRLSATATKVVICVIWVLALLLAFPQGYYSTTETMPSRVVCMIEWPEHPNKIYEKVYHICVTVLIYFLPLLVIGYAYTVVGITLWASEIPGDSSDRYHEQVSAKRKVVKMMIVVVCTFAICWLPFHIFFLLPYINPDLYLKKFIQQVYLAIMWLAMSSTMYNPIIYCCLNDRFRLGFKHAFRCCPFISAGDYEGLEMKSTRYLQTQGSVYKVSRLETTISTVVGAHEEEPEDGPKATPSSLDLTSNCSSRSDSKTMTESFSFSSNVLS
P2X purinoceptor 3 (Homo sapiens), sequence (P56373 whole entry): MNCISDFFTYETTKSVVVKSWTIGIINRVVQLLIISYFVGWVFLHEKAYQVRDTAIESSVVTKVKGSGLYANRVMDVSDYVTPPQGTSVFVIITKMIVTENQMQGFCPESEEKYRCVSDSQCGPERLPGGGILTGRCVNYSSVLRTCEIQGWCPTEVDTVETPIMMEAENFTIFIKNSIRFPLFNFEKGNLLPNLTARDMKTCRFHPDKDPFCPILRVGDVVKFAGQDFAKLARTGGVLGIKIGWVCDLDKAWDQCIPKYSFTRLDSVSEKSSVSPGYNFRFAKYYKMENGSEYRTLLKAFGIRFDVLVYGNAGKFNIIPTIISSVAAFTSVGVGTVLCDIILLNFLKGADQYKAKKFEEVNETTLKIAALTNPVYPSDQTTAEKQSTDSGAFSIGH
Sodium-dependent serotonin transporter (Homo sapiens), sequence (P31645 whole entry, looked up): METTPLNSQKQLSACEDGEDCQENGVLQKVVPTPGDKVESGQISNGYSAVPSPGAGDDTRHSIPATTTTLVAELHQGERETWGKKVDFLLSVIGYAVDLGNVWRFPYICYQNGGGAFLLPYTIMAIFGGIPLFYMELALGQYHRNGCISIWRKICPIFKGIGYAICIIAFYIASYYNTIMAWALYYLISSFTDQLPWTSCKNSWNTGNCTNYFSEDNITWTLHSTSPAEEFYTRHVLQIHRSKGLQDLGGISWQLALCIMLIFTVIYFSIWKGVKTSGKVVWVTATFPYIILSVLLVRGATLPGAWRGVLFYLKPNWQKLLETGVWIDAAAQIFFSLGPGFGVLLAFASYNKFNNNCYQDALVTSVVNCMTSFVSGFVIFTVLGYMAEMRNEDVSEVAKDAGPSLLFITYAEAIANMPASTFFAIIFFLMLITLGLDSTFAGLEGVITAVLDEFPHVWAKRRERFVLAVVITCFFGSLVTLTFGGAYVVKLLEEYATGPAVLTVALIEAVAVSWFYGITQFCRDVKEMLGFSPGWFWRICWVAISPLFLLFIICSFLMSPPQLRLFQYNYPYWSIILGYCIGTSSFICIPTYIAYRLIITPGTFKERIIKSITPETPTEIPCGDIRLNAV

## C=C1C(=O)O[C@@H]2C[C@@]3(C)CC[C@@H](OC(=O)c4cnc(Cl)cc4Cl)C(=C)[C@@H]3C[C@H]12
[1]
  half-life: 3.04 h
Cytochrome P450 2E1
  pIC50: < 4.00
[2]
  inhibition: < 50%
[3]
  inhibition: < 50%
[4]
  inhibition: < 50%
[5]
  inhibition: < 50%
Homo sapiens
  inhibition: < 50%
[6]
  inhibition: < 50%
[7]
  inhibition: < 50%
[8]
  Activity: < 50%
[9]
  Activity: < 50%
[10]
  Activity: < 50%
[11]
  Activity: < 50%
[12]
  Activity: < 50%
[13]
  Activity: < 50%
[14]
  Activity: < 50%
[15]
  Activity: < 50%
[16]
  Activity: < 50%
[17]
  Activity: < 50%
BMDM [18]
  Activity: Non-Toxic
[19]
  Activity: Non-Toxic
BMDM [20]
  Activity: Toxic
[21]
  Activity: Toxic
[22]
  inhibition: Dose-Dependent Effect
[23]
  inhibition: Dose-Dependent Effect
[24]
  inhibition: inactive
[25]
  Cmax: 1.57 ng/mL
[26]
  concentration at 2 h: 4610 ng/g
[27]
  concentration at 24 h: 81.3 ng/g
[28]
  concentration at 0.5 h: 0.22 ng/mL
[29]
  concentration at 2 h: 1.97 ng/mL
[30]
  concentration at 8 h: 1.52 ng/mL
BMDM [31]
  inhibition: Active
THP-1 [32]
  Activity: Active
THP-1 [33]
  inhibition: Active
THP-1 [34]
  inhibition: Active
HEK293T [35]
  inhibition: Active
HEK293T [36]
  inhibition: inactive
